The text below walks through data of paper doi:10.1101/2020.09.01.277368v1, “Disulfiram inhibits M. tuberculosis growth by altering methionine pool, redox status and host-immune response” (biorxiv, 2020).

T1 sequence (P9WJY9 whole entry, looked up): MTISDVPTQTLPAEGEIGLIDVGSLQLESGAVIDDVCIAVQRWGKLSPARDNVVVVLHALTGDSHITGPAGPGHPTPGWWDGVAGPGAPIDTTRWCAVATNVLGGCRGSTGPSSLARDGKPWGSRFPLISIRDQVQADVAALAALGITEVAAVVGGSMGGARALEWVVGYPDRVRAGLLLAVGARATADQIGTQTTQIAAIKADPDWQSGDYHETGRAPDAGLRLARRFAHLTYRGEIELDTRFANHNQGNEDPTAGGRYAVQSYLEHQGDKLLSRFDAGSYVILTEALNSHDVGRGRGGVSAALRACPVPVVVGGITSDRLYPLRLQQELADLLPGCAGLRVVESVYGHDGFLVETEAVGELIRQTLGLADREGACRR

The assay addresses T1, MetA (HSAT, homoserine acetyl transferase, Rv3341) (Mycobacterium tuberculosis, UniProt P9WJY9).
T1 construct: gene metXA
Briefly: endpoint DTNB CoA release assay. Type of assay: biochemical.
As for `Oc1cc(CNC2CCCCC2)c(O)cc1CNC1CCCCC1` [NSC48443], the “% inhibition at 100 μM” value is reported as more than 50%. With `COc1cc(-c2ccc(Nc3ccccc3C(=O)O)c(OC)c2)ccc1Nc1ccccc1C(=O)O` [NSC73735] the figure was more than 50%; with `CCOC(=O)/C(C#N)=C1\SS/C(=C(/C#N)C(=O)OCC)S1` [NSC98363], more than 50%; with `O=Nc1c(-c2cccc([N+](=O)[O-])c2)nc2ncccn12` [NSC369066], more than 50%.

As for `Cc1ccc(S(=O)(=O)SC/C=C/CSS(=O)(=O)c2ccc(C)cc2)cc1` [NSC624158], the “% inhibition at 100 μM” value is recorded as more than 50%. To `C/C(=N\NC(=S)N(C)C)c1ccccn1.[Cu][Br]` [NSC635448] belongs more than 50%.

Take `Oc1cc(-n2cccn2)c(O)cc1-n1cccn1` [NSC645987]: the “% inhibition at 100 μM” value is reported as more than 50%.
